Columns and labels:
[1] = CO release from CORM-2 suspension, amperometric detection in a sealed flask, triggered by Na2SO3; type: physicochemical
From the text: An Erlenmeyer flask purchased from Gebr. Rettberg (Gottingen, Germany) was used as reaction space. For insertion of the CO sensor and to seal the reaction space, a conically tapered joint from Schott Medica (Wertheim, Germany) was equipped with a glass guide tube for an electric wire. As a prerequisite for cross referencing with calibration gas, a single-bore stopcock was connected to the Erlenmeyer flask as well as to the conically tapered joint. The integrated CO sensor of the “Ei207D” CO detector (Ei Electronics, Shannon, Ireland) was removed and externally connected using a “Wire Wrap” 0.404 mm^2 wire (Kabeltronik, Denkendorf, Germany) linked with a 1.3 mm accessory shoe (Vogt AG, Lostorf, Switzerland). The wire was glued into the guide tube with “UHU plus endfest” epoxide resin (UHU, Bũhl, Germany) to seal the system. On-line videos were collected monitoring the detector with USB webcams with the Eyeline video surveillance software (NCH Software, Canberra, Australia).
The CO release from CORM-2 was triggered by Na2SO3 and amperiometrically detected. For that, 4.3 mg CORM-2 were placed in the Erlenmeyer flask filled with 15 ml Millipore water and stirred at 130 rpm (Variomag Telesystem, Thermo Scientific, MA). After 25 minutes, 10 mg Na2SO3 were added to the reaction space. CO release in ppm as read from the detector of each system was calibrated with 100 ppm CO calibration gas (diluted in air; from Real Gas (Martinsried, Germany) and normalized, accordingly (see FIG. 1 for results).
A concentration series of CO was generated by transferring different amounts of CORM-2 into 25 mL of a stirred (130 rpm) 333 mg/L aqueous Na2SO3 solution. CO release [ppm] after 60-80 minutes was plotted against the amount of CORM-2 [mg] placed into the system. Following this procedure, CO release [ppm] is expressed as amount of CORM-2 [mg], with one CORM-2 equivalent being defined as the amount of CO released per milligram CORM-2 after 60-80 minutes and when exposed to the experimental conditions described in this section (see FIG. 2B for results). CO release from CORM-2 expressed in CORM-2 equivalents [mg] followed a linear pattern (y=0.0192+1.0199x; r^2>0.99; n=1 for 14 independent measurements).
CO data reported in the example is calculated from the corresponding release from CORM-2 equivalents and if reported for CORM-A1, calculated using linear regression. […] Therefore, CO loss by and from the system was quantified and basis for data correction. For the correction, the loss by and from the system was recorded and added to the data as read from the detector (vide infra). For assessment of CO loss and data correction, CO was generated from CORM-2 in presence of Na2SO3 with stirring at 130 rpm, until reaching a value of approximately 800 ppm. At this point the stirring was stopped. CO loss [ppm] was recorded when a value of 720 ppm was reached and followed an exponential decline (y=717.5*e−0.145x; r^2>0.99; n=5; see FIGS. 3A and 3B for results).

[2] = CO release from CORM-2 suspension in Na2SO3 solution as a function of ionic strength; type: physicochemical; conditions: n=3
Procedure: Experiments assessing the impact of the release medium on CO release (see FIG. 5A, 5B) were done in comparison to control experiments, within which 12 mg coated Na2SO3 crystals were measured in simulated gastric fluid without enzymes to control for possible detector interference with sulfites (interference was not observed with these experimental conditions; data not shown). Experiments assessing the impact of the coating procedure on CO release were done in comparison to control experiments, within which 3 mg CORM-2 was suspended in 25 mL of 0.333 g/L Na2SO3 solution (see FIG. 6 for results). In another set of control experiments, the impact of the ionic strength of the release medium and the impact of the salt with which the ionic strength was set (using sodium chloride solutions to set ionic strengths of 0.88 mol/L and 1.8 mol/L, respectively, and magnesium chloride to set an ionic strengths of 1.26 mol/L) on CO release was studied using CORM-2 suspensions. For that, CORM-2 was exposed to 25 mL of 0.333 g/L Na2SO3 in the appropriate release medium (for results, see FIG. 7).

SMILES: [C-]#[O+].[C-]#[O+].[C-]#[O+].[C-]#[O+].[C-]#[O+].[C-]#[O+].[Cl][Ru][Cl].[Cl][Ru][Cl] [CORM-2, Tricarbonyldichlororuthenium(II) dimer]
- CO release of CORM-2 suspended in water ([1]; 4.3 mg CORM-2 in 15 ml water, before Na2SO3 was added): no detectable CO release
- time to complete CO release after Na2SO3 was added ([1]; 10 mg Na2SO3 added after 25 min): ≤ 25 min
- CO release reached within the time frame ([1]; 60-80 minutes in 25 mL of 333 mg/L aqueous Na2SO3, stirred at 130 rpm): > 90%
- time to half maximal CO release ([1]; CORM-2 suspension control, 3 mg in 25 mL of 0.333 g/L Na2SO3): 20 min
- CO release plateau ([1]; after 40 minutes, Na2SO3 triggered): 550 ppm
- time at which CO release plateaus (corrected data) ([1]; sulfite triggered, corrected for CO loss): approximately 140 minutes
- reduction of CO release ([2]; ionic strength 0.88 mol/L set with NaCl, compared with 0.008 mol/L): 26±9%
- reduction of CO release ([2]; ionic strength 1.26 mol/L set with MgCl2): 50±3%
- reduction of CO release ([2]; ionic strength 1.8 mol/L set with NaCl): 53±6%
